The test system of one assay is Septoria tritici. In words: B-9. Septoria tritici in vitro cell test. As to conditions: Zymoseptoria tritici, 168 h; 20 ppm of active ingredient; 7 days incubation; liquid culture, absorbance; read-out: efficacy (inhibition of fungal growth). In kind it is cell-based. Summed up: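 Compounds from DMSO stocks (final DMSO ≤1%) were added to liquid medium containing S. tritici spores to test inhibition of germination and mycelial growth. After 7 days, mycelium growth was read spectrometrically and inhibition derived from absorbance versus fungicide-free control wells.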

The test system of assay [1] is Botrytis cinerea. In words: B-11. Botrytis cinerea in vitro cell test. In kind it is cell-based. As to conditions: 144 h, 20 ppm of active ingredient, 6 days incubation, liquid culture, absorbance, read-out: efficacy (inhibition of fungal growth). The method in brief:
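B. cinerea spores were grown in liquid culture with compound (DMSO ≤1% final). Mycelium growth was measured spectrometrically after 6 days, with inhibition taken as absorbance relative to untreated control wells.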

Another assay has as its system Sphaerotheca fuliginea. The assay can be described thus: In vivo preventive test on Sphaerotheca fuliginea (powdery mildew on cucurbits). As to conditions: Podosphaera fuliginea, 192 h; 500 ppm of active ingredient; preventive spray on gherkin; evaluated 8 days after inoculation; read-out: efficacy. Summed up:
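This is a preventive spray test on gherkin seedlings, with compound formulated in DMSO/acetone/Tween 80 in water and solvent-only controls. Spore inoculation followed one day after treatment. Incubation lasted 8 days at 20 °C, 70–80% RH.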

Assay [2] relates to Colletotrichum lindemuthianum. The assay can be described thus: In vivo preventive test on Colletotrichum lindemuthianum (leaf spot on bean). As to conditions: 168 h, 500 ppm of active ingredient, preventive spray on bean, evaluated 7 days after inoculation, read-out: efficacy. Summed up:
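Young bean plants sprayed with compound in DMSO/acetone/Tween 80 diluted in water; solvent-only controls. Inoculated 24 h later with C. lindemuthianum spore suspension, then kept 24 h at 20 °C/100% RH and 6 days at 20 °C/90% RH.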

A further assay deals with Alternaria brassicae. In words: In vivo preventive test on Alternaria brassicae (leaf spot on radish or cabbage). As to conditions: 500 ppm of active ingredient, preventive spray on radish or cabbage, evaluated 3 to 4 days after inoculation, read-out: efficacy. Summed up: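 Protective spray on young radish or cabbage: actives in water diluted from DMSO/acetone/Tween 80, with solvent-only controls. Leaves were challenged after 24 h with a spore suspension, and plants were held at 100% RH, 20 °C for 3 to 4 days.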

The subject of assay [3] is Colletotrichum lindemuthianum. In words: B-8. Colletotrichum lindemuthianum in vitro cell test. In kind it is cell-based. To be noted: 144 h, 20 ppm of active ingredient, 6 days incubation, liquid culture, absorbance, read-out: efficacy (inhibition of fungal growth). Summed up:
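Liquid-culture germination/growth test: compounds in ≤1% final DMSO were added to spore-containing medium. Fungal growth was quantified spectrophotometrically after 6 days of incubation and expressed as inhibition versus untreated controls.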

A further assay deals with Pyrenophora teres. The assay can be described thus: B-10. Pyrenophora teres in vitro cell test. In kind it is cell-based. As to conditions: 144 h, 20 ppm of active ingredient, 6 days incubation, liquid culture, absorbance, read-out: efficacy (inhibition of fungal growth). Summed up:
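Liquid-culture assay on a P. teres spore suspension with compounds added to the medium from DMSO solutions, final DMSO ≤1%. Mycelium growth read spectrometrically after 6 days. Inhibition calculated from absorbance against untreated control wells.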

Assay [4] concerns Botrytis cinerea. In words: In vivo preventive test on Botrytis cinerea (grey mould). To be noted: 500 ppm of active ingredient, preventive spray on gherkin or cabbage, evaluated 4 to 5 days after inoculation, read-out: efficacy. Summed up: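 Preventive spray on cabbage or gherkin seedlings, with compound formulated in DMSO/acetone/Tween 80 and water-diluted, preceded spore inoculation by 24 hours. Cabbage was held 4 to 5 days at 20° C., 100% relative humidity; gherkin 4 to 5 days at 17° C., 90% relative humidity.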

For eight compounds, inhibition and pest or weed control results are on record in patent publication US20230192617A1, “AZABICYCLIC(THIO)AMIDES AS FUNGICIDAL COMPOUNDS” (Bayer CropScience Aktiengesellschaft, priority 2020, published 2023).

Each structure is given as a SMILES string.

Take `Cc1ccc(C(F)(F)CNC(=O)c2c(Oc3cccc(C(F)F)c3)cnc3ccccc23)c(C)c1` [I-220]: the inhibition at 20 ppm (with Septoria tritici; in the assay on Botrytis cinerea [1]; in assay [3]; with Pyrenophora teres) was 90 to 100% in each case. The pest or weed control at 500 ppm with Sphaerotheca fuliginea is 90 to 100%; in assay [2], 80 to 89%; in the assay with Alternaria brassicae it was 90 to 100%; with Botrytis cinerea [4] it was 90 to 100%.
For `O=C(NC[C@H](F)c1ccc(Cl)cc1Cl)c1c(Oc2cccc(C3CC3)c2F)nnc2ccccc12` (racemic) [I-072], the inhibition at 20 ppm (in the assay on Septoria tritici; in the assay with Botrytis cinerea [1]; in assay [3]; with Pyrenophora teres) was 90 to 100% in each case. Besides, the pest or weed control at 500 ppm (with Sphaerotheca fuliginea; in assay [2]; in the assay on Alternaria brassicae; in the assay on Botrytis cinerea [4]) was 90 to 100% throughout.
`Cc1ccc(C(F)(F)CNC(=O)c2c(Oc3cccc(C(F)(F)F)c3)nnc3cc(C)ccc23)c(Cl)c1` [I-245]: the inhibition (commonly the drop in the measured response relative to a control, in per cent) at 20 ppm in the assay with Septoria tritici is 80 to 89%; with Botrytis cinerea [1] it was 90 to 100%; in assay [3], 90 to 100%; in the assay with Pyrenophora teres, 90 to 100%. Further, the pest or weed control at 500 ppm with Sphaerotheca fuliginea fell in the range of 90 to 100%; in assay [2] it was 80 to 89%; in the assay on Alternaria brassicae it was 90 to 100%; in the assay with Botrytis cinerea [4] it was 90 to 100%.
For the compound `O=C(NCC(F)c1ccc(Cl)cc1Cl)c1c(Oc2cccc(Cl)c2F)nnc2c1CCCC2` (stereo not shown) [I-149], the inhibition at 20 ppm (with Septoria tritici; in the assay on Botrytis cinerea [1]; in assay [3]; in the assay with Pyrenophora teres) was 90 to 100% each time. Also, the pest or weed control at 500 ppm (with Sphaerotheca fuliginea; in assay [2]; with Alternaria brassicae; in the assay with Botrytis cinerea [4]) was 90 to 100% each time.
On to `Cc1ccc(C(F)(F)CNC(=O)c2c(Oc3cccc(C(F)F)c3)nnc3c2CCCC3)c(C)c1` [I-129], for which the inhibition at 20 ppm (in the assay with Septoria tritici; in the assay with Botrytis cinerea [1]; in assay [3]; in the assay with Pyrenophora teres) was 90 to 100% throughout. In addition, the pest or weed control at 500 ppm (in the assay with Sphaerotheca fuliginea; in assay [2]; in the assay with Alternaria brassicae; in the assay with Botrytis cinerea [4]) was 90 to 100% in each case.
With `O=C(NCC(F)c1ccc(Cl)cc1Cl)c1c(Oc2cccc(Cl)c2F)nnc2c1CCC2` (stereo not shown) [I-188], the inhibition at 20 ppm (in the assay with Septoria tritici; in the assay on Botrytis cinerea [1]; in assay [3]; with Pyrenophora teres) was 90 to 100% in each case. The pest or weed control at 500 ppm (in the assay with Sphaerotheca fuliginea; in assay [2]; in the assay on Alternaria brassicae; in the assay with Botrytis cinerea [4]) was 90 to 100% each time.
For the compound `Cc1ccc([C@@H](F)CNC(=O)c2c(Oc3cccc(C(F)(F)F)c3)nnc3ccccc23)cc1C` (racemic) [I-084], the inhibition at 20 ppm (in the assay with Septoria tritici; in the assay with Botrytis cinerea [1]; in assay [3]; in the assay on Pyrenophora teres) was 90 to 100% in each case. Also, the pest or weed control at 500 ppm lay in the range of 80 to 89% in the assay with Sphaerotheca fuliginea, 90 to 100% in assay [2], 90 to 100% with Alternaria brassicae and 90 to 100% in the assay on Botrytis cinerea [4].
For the compound `Cc1cc(Cl)ccc1C(F)(F)CNC(=O)c1c(Oc2cccc(C(F)(F)F)c2)nnc2c1CCCC2` [I-145], the inhibition at 20 ppm (in the assay on Septoria tritici; in the assay on Botrytis cinerea [1]; in assay [3]; in the assay on Pyrenophora teres) was 90 to 100% each time. In addition, the pest or weed control at 500 ppm (in the assay on Sphaerotheca fuliginea; in assay [2]; with Alternaria brassicae; in the assay with Botrytis cinerea [4]) was 90 to 100% throughout.
